Laboratory results as given in ChEMBL document CHEMBL4373723 (J Med Chem, 2019).
Calls of active or inactive are those of the source. The calls are words filed in the database; no cut-off is given here.

Experiments:
[1] = biological target: T1, Frizzled-7 (Homo sapiens, UniProt O75084); format: cell-based; conditions: cho
[2] = biological target: T1, Frizzled-7; assay: biochemical; format: cell-based, CHO; conditions: read-out: Kd
[3] = biological target: T1, Frizzled-7; assay: Inhibition of Frizzled-7 in HEK293 cells expressing Wnt assessed as reduction in Wnt signaling by firefly luciferase reporter gene assay; format: cell-based
[4] = Stability in cell culture medium containing 10% fetal bovine serum at 200 uM at 37 degC measured over 24 hrs by LC-MS analysis; format: ADME, cell-free, Bos taurus; conditions: cattle
[5] = Stability in presence of TCEP assessed as disulfide reduction at 20 uM measured over 40 mins at 37 degC by LC-MS analysis; format: physicochemical
[6] = biological target: T1, Frizzled-7; assay: Binding affinity to recombinant human Frizzled-7 (Gln33 to Leu185 residues)/human IgG1 chimeric protein expressed in CHO cells assessed as reduction in interaction of TcdB with FZD7 incubated for 1 hr by competition ELISA; format: cell-based
[7] = Binding affinity to recombinant human/mouse Frizzled-2 (Gln29 to Leu168 residues)/human IgG1 chimeric protein expressed in mouse NS0 cells assessed as reduction in interaction of TcdB with FZD7 incubated for 1 hr by competition ELISA; format: cell-based
[8] = species: Homo sapiens; assay: Modulation of Frizzled in human Caco2 cells assessed as protection against TcdB-induced cell rounding incubated for 24 hrs by phalloidin conjugated AlexaFluor488 dye based fluorescence microscopy
[9] = species: Homo sapiens; assay: Modulation of Frizzled in human Caco2 cells assessed as protection against 0.1 to 1 ng/ml TcdB-induced cell rounding incubated for 24 hrs by phalloidin conjugated AlexaFluor488 dye based fluorescence microscopy relative to control
[10] = species: Homo sapiens; assay: Modulation of Frizzled in human Caco2 cells assessed as protection against 0.25 to 0.5 ng/ml TcdB-induced cell rounding at 50 uM incubated for 24 hrs by phalloidin conjugated AlexaFluor488 dye based fluorescence microscopy relative to control
[11] = species: Homo sapiens; assay: Modulation of Frizzled in human Caco2 cells assessed as protection against 4 ng/ml TcdB-induced cell rounding at 50 uM incubated for 24 hrs by phalloidin conjugated AlexaFluor488 dye based fluorescence microscopy relative to control
[12] = species: Cricetulus griseus; assay: Modulation of Frizzled in CHOK1 cells assessed as protection against 5 ng/ml TcdB-induced cell rounding at 50 uM incubated for 24 hrs by phalloidin conjugated AlexaFluor488 dye based fluorescence microscopy relative to control
[13] = biological target: T1, Frizzled-7; conditions: CHO
[14] = mouse, serum, 24 h, 200 µM
[15] = 40 min, 20 µM
[16] = 40 min, 20 µM; remark: listed apart in the source
[17] = biological target: T1, Frizzled-7; assay: Binding affinity to recombinant human Frizzled-7 (Gln33 to Leu185 residues)/human IgG1 chimeric protein expressed in CHO cells assessed as association rate constant by SPR assay; format: cell-based
[18] = biological target: Frizzled-1 (Homo sapiens, UniProt Q9UP38); assay: Binding affinity to recombinant human Frizzled-1 (Gln73 to His253 residues)/human IgG1 chimeric protein expressed in mouse NS0 cells by SPR assay
[19] = Binding affinity to recombinant human/mouse Frizzled-2 (Gln29 to Leu168 residues)/human IgG1 chimeric protein expressed in mouse NS0 cells by SPR assay
[20] = biological target: Frizzled-5 (Homo sapiens, UniProt Q13467); assay: Binding affinity to recombinant human Frizzled-5 (Ala27 to Pro167 residues)/human IgG1 chimeric protein expressed in mouse NS0 cells by SPR assay
[21] = biological target: Frizzled-8 (Homo sapiens, UniProt Q9H461); assay: Binding affinity to recombinant human Frizzled-8 (Ala25 to Pro172 residues)/human IgG1 chimeric protein expressed in CHO cells […] by SPR assay
[22] = biological target: T2, Frizzled-4 (Homo sapiens, UniProt Q9ULV1); assay: Binding affinity to recombinant human Frizzled-4 (Phe37 to Glu180 residues)/human IgG1 chimeric protein expressed in mouse NS0 cells by SPR assay
T2 sequence (Q9ULV1 whole entry): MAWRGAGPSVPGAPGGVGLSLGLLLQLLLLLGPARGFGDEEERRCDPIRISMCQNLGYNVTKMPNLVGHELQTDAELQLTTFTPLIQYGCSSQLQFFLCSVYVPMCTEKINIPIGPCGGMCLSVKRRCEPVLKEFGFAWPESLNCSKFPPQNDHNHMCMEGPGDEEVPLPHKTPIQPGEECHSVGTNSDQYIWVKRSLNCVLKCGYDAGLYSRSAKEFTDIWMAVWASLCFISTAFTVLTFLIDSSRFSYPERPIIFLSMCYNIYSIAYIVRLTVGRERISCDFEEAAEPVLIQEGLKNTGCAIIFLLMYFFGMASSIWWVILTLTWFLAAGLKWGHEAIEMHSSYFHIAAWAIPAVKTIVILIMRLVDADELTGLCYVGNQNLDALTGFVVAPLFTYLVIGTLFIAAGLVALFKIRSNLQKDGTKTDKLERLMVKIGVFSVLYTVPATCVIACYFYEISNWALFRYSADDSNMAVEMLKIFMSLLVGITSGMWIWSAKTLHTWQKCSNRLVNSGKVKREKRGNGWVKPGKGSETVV

[23] = biological target: T3, Frizzled-9 (Homo sapiens, UniProt O00144); assay: Binding affinity to Frizzled-9 CRD (unknown origin)
T3 sequence (O00144 whole entry): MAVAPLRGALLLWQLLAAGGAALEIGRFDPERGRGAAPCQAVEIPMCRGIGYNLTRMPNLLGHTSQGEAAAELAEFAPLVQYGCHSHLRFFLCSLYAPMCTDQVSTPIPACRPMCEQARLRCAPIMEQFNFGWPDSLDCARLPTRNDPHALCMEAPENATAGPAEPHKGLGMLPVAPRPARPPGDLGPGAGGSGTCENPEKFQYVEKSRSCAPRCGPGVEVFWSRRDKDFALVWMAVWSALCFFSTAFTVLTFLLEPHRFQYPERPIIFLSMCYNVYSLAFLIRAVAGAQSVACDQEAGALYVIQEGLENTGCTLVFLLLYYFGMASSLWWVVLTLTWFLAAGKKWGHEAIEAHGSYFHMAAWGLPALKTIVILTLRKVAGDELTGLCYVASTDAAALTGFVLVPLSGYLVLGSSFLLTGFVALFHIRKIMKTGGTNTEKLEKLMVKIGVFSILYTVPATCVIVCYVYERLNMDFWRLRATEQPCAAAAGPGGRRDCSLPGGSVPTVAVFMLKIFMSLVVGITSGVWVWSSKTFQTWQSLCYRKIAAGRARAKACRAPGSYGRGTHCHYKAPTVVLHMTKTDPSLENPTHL

[24] = biological target: T4, Frizzled-10 (Homo sapiens, UniProt Q9ULW2); assay: Binding affinity to Frizzled-10 CRD (unknown origin)
T4 sequence (Q9ULW2 whole entry): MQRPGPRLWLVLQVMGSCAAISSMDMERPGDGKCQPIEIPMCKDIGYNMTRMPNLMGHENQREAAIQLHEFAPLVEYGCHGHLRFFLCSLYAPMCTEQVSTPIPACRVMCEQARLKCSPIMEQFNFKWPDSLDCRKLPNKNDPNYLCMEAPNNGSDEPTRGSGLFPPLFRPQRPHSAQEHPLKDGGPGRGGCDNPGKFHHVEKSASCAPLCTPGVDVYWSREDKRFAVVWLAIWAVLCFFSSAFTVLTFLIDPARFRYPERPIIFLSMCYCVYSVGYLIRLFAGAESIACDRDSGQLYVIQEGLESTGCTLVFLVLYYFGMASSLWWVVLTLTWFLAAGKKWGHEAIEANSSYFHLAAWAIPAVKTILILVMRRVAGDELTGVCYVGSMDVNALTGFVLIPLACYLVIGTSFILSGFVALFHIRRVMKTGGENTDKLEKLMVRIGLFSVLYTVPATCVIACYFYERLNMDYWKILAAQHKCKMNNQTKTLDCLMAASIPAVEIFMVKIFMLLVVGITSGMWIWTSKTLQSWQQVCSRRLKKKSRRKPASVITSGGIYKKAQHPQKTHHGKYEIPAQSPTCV

[25] = biological target: T1, Frizzled-7; assay: Binding affinity to recombinant human Frizzled-7 (Gln33 to Leu185 residues)/human IgG1 chimeric protein expressed in CHO cells assessed as reduction in interaction of TcdB with FZD7 by SPR
[26] = species: Homo sapiens; assay: Binding affinity to recombinant human/mouse Frizzled-2 (Gln29 to Leu168 residues)/human IgG1 chimeric protein expressed in mouse NS0 cells assessed as reduction in interaction of TcdB with FZD7 by SPR

Chain of Frizzled-5 (Q13467 whole entry): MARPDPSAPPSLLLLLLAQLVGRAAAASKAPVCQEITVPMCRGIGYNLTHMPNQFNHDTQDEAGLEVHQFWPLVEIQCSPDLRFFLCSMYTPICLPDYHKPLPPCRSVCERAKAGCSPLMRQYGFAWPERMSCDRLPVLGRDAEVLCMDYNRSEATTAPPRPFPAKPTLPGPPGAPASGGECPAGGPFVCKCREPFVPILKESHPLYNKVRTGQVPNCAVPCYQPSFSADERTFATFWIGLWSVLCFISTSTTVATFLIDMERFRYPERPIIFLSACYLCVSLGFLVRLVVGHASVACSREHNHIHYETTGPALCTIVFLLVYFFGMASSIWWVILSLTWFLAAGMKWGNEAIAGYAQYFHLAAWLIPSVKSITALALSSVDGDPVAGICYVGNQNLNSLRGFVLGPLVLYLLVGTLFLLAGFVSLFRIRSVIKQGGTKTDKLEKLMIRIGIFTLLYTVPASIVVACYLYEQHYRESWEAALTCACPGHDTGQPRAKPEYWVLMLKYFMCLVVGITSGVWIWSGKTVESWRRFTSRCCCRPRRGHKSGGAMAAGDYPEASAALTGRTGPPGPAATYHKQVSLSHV
Chain of Frizzled-8 (Q9H461 whole entry): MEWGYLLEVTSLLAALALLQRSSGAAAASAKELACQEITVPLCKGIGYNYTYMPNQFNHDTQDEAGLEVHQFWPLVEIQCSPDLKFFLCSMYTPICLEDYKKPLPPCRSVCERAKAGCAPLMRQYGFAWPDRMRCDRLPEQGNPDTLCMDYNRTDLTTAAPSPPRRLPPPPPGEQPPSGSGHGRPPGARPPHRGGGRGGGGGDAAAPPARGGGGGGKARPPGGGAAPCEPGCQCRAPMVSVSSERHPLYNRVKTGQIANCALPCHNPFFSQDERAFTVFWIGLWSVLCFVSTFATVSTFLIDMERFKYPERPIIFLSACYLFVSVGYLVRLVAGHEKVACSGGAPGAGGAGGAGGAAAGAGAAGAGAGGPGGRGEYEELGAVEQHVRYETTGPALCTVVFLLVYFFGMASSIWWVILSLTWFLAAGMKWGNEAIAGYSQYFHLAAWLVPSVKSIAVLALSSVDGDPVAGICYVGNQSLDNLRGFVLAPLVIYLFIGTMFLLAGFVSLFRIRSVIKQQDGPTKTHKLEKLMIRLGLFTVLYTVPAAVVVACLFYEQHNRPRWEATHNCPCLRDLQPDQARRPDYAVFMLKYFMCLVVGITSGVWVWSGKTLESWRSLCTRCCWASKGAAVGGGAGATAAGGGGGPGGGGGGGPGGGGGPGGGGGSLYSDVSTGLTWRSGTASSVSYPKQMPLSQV
Chain of Frizzled-1 (Q9UP38 whole entry): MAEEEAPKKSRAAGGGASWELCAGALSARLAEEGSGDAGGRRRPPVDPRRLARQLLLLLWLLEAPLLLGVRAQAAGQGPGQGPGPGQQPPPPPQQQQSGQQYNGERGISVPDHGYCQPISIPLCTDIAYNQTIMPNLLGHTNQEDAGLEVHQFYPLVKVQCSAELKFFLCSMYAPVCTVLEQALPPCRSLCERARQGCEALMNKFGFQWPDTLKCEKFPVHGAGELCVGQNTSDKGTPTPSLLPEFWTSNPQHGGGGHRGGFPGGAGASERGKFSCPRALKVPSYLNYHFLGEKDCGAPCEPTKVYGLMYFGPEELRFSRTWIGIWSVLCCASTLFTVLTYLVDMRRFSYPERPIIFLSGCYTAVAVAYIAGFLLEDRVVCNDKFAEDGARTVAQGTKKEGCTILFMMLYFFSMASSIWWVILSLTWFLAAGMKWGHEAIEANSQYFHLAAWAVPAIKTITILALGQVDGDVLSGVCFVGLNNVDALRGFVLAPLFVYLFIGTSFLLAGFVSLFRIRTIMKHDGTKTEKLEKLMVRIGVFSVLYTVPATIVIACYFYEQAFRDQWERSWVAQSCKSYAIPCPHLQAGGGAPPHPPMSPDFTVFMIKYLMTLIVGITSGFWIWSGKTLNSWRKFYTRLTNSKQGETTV

`CC[C@H](C)[C@H](NC(=O)[C@H](Cc1cnc[nH]1)NC(=O)[C@H](CSSC[C@H](NC(=O)[C@H](Cc1c[nH]c2ccccc12)NC(=O)[C@H](CC(C)C)NC(=O)[C@H](CCC(=O)O)NC(=O)[C@H](CC(C)C)NC(=O)[C@H](CC(=O)O)NC(=O)[C@H](CC(=O)O)NC(=O)[C@@H](NC(C)=O)[C@H](C)O)C(=O)N[C@@H](Cc1cnc[nH]1)C(=O)N[C@H](C(=O)N[C@@H](CCSC)C(=O)N[C@@H](Cc1ccc(O)cc1)C(N)=O)[C@@H](C)CC)NC(=O)[C@H](Cc1c[nH]c2ccccc12)NC(=O)[C@H](CC(C)C)NC(=O)[C@H](CCC(=O)O)NC(=O)[C@H](CC(C)C)NC(=O)[C@H](CC(=O)O)NC(=O)[C@H](CC(=O)O)NC(=O)[C@@H](NC(C)=O)[C@H](C)O)C(=O)N[C@@H](CCSC)C(=O)N[C@@H](Cc1ccc(O)cc1)C(N)=O` gave a Kd [1] of 0.64 ×10⁻³ /s, a Kd [2] of 0.039 nM and an IC50 [3] of 9.2 nM. For the same molecule, the Stability [4] was “Stable”, the Stability [5] was “Unstable” and the inhibition [6] was “Dose-dependent effect”. The inhibition [7] was “Dose-dependent effect”, the inhibition [8] was “Dose-dependent effect” and the Activity [9] was 34 to 69%. The Activity [10] was “Active”, the Activity [11] was “inactive” and the Activity [12] was “Active”. The Ka [13] was 166 ×10⁵ /M/s, the Stability [14] was “Stable” and the Stability [15] was “Unstable”. The Stability [16] was “Unstable”.

With `CC[C@H](C)[C@H](NC(=O)[C@H](Cc1cnc[nH]1)NC(=O)[C@H](CSSCC[C@H](NC(=O)[C@H](Cc1c[nH]c2ccccc12)NC(=O)[C@H](CC(C)C)NC(=O)[C@H](CCC(=O)O)NC(=O)[C@H](CC(C)C)NC(=O)[C@H](CC(=O)O)NC(=O)[C@H](CC(=O)O)NC(=O)[C@@H](NC(C)=O)[C@@H](C)O)C(=O)N[C@@H](Cc1cnc[nH]1)C(=O)N[C@H](C(=O)N[C@@H](CCSC)C(=O)N[C@@H](Cc1ccc(O)cc1)C(N)=O)[C@@H](C)CC)NC(=O)[C@H](Cc1c[nH]c2ccccc12)NC(=O)[C@H](CC(C)C)NC(=O)[C@H](CCC(=O)O)NC(=O)[C@H](CC(C)C)NC(=O)[C@H](CC(=O)O)NC(=O)[C@H](CC(=O)O)NC(=O)[C@@H](NC(C)=O)[C@H](C)O)C(=O)N[C@@H](CCSC)C(=O)N[C@@H](Cc1ccc(O)cc1)C(N)=O` the “association rate constant (ka)” value [17] was 1.7 ×10⁷ /M/s, the Kd [1] was 6.3 ×10⁻³ /s and the Kd [2] was 0.37 nM. For the same molecule, the Stability [5] was “Stable”, the Stability [14] was “Stable” and the Stability [15] was “Stable”.

Molecule `CC[C@H](C)[C@H](NC(=O)[C@H](Cc1cnc[nH]1)NC(=O)[C@H](CSSC[C@H](NC(=O)[C@H](Cc1c[nH]c2ccccc12)NC(=O)[C@H](Cc1cccc(Cl)c1)NC(=O)[C@H](CCC(=O)O)NC(=O)[C@H](CC(C)C)NC(=O)[C@H](CC(=O)O)NC(=O)[C@H](CC(=O)O)NC(=O)[C@@H](NC(C)=O)[C@H](C)O)C(=O)N[C@@H](Cc1cnc[nH]1)C(=O)N[C@H](C(=O)N[C@@H](CCSC)C(=O)N[C@@H](Cc1ccc(O)cc1)C(N)=O)[C@@H](C)CC)NC(=O)[C@H](Cc1c[nH]c2ccccc12)NC(=O)[C@H](CC(C)C)NC(=O)[C@H](CCC(=O)O)NC(=O)[C@H](Cc1cccc(Cl)c1)NC(=O)[C@H](CC(=O)O)NC(=O)[C@H](CC(=O)O)NC(=O)[C@@H](NC(C)=O)[C@H](C)O)C(=O)N[C@@H](CCSC)C(=O)N[C@@H](Cc1ccc(O)cc1)C(N)=O` has a Kd [1] of 0.54 ×10⁻³ /s, a Kd [2] of 0.039 nM and a Kd [18] of 0.34 nM. For the same molecule, the Kd [19] was 0.32 nM, the Kd [20] was “Not Active” and the Kd [21] was “Not Active”. The Kd [22] was “Not Active”, the Kd [23] was “Not Active” and the Kd [24] was “Not Active”. The IC50 [3] was 53 nM, the inhibition [6] was “Dose-dependent effect” and the inhibition [7] was “Dose-dependent effect”. The inhibition [25] was “Active”, the inhibition [26] was “Active” and the Ka [13] was 139 ×10⁵ /M/s.
